Measurements from patent US5508180A, “Biocatalytic oxidation using soybean peroxidase” (Enzymol International, Inc., priority 1994, dated 1996).

Columns and labels:
soybean peroxidase [1] = target: T1, soybean peroxidase (Glycine max, UniProt O22443); test: N-demethylation of N,N-dimethylanthranilic acid methyl ester by soybean peroxidase; type: biochemical
T1 construct: secreted heme glycoprotein, reported 37 kDa
Description: N,N-Dimethylanthranilic acid methyl ester (DMA) and the product of N-demethylation, N-methylanthranilic acid methyl ester (NMA), were purchased from TCI America (Portland, Oreg.). […] Using 1 g. (5mM) DMA in 25 mM acetate, pH 4.5, 120 ppu SBP and 1 mM H202, the increases observed were: 295 nm - 0.727 AU per min; 379 nm -0.403 AU per min. To optimize N-demethylation, the effect of pH was studied using 25 mM buffers at the appropriate pH.

soybean peroxidase [2] = target: T1, soybean peroxidase; test: Chlorination of dimedone to 2-chlorodimedone catalyzed by soybean peroxidase; type: biochemical; conditions: for Absorbance Units at 307 nm: pH 2, 120 ppu SBP, 1 mM H2O2, room temperature
Description: A stock solution (9.5 mM dimedone) was prepared by adding 1 g. 5,5-dimethyl-1,3-cyclohexane dione (dimedone) to […]. The solution was stirred to dissolve the dimedone and the pH adjusted to 2 with HCl. Chlorination of dimedone was catalyzed by soybean peroxidase (120 ppu) at pH 2 and 1 mM H2 O2. Increase in absorbance at 307 nm, corresponding to the absorbance maximum of 2-chlorodimedone was followed at room temperature and is shown in Table 9.
The effect of temperature on cholrination of dimedone was studied under these conditions. Reactions were performed as described above with increasing assay temperature.

T1 sequence (O22443 27-332): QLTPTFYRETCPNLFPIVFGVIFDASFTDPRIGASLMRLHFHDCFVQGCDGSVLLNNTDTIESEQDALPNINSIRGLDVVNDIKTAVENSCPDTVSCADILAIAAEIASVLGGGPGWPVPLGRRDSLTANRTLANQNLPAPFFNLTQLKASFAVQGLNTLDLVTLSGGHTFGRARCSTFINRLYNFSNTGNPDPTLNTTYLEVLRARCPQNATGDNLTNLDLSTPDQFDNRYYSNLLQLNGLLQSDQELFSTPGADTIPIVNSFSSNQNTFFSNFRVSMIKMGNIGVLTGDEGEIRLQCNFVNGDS

Row | Compound | increase in absorbance at 295 nm (soybean peroxidase [1]; 5mM DMA, 25 mM acetate pH 4.5, 120 ppu SBP, 1 mM H2O2) [AU per min] | dA per min at 379 nm (soybean peroxidase [1]; pH 1, 25 mM buffer) | dA per min at 379 nm (soybean peroxidase [1]; pH 2, 25 mM buffer) | dA per min at 379 nm (soybean peroxidase [1]; pH 3, 25 mM buffer) | dA per min at 379 nm (soybean peroxidase [1]; pH 4, 25 mM buffer) | dA per min at 379 nm (soybean peroxidase [1]; pH 5, 25 mM buffer) | dA per min at 379 nm (soybean peroxidase [1]; pH 6, 25 mM buffer) | dA per min at 379 nm (soybean peroxidase [1]; pH 7, 25 mM buffer) | dA per min at 307 nm (soybean peroxidase [2]; 25 °C, pH 2) | dA per min at 307 nm (soybean peroxidase [2]; 35 °C, pH 2) | dA per min at 307 nm (soybean peroxidase [2]; 45 °C, pH 2) | dA per min at 307 nm (soybean peroxidase [2]; 55 °C, pH 2) | dA per min at 307 nm (soybean peroxidase [2]; 65 °C, pH 2) | dA per min at 307 nm (soybean peroxidase [2]; 75 °C, pH 2) | optimal temperature of oxidative chlorination (soybean peroxidase [2]; pH 2) | Absorbance Units at 307 nm (soybean peroxidase [2]; time of reaction 0 min) [Absorbance Units] | Absorbance Units at 307 nm (soybean peroxidase [2]; time of reaction 1 min) [Absorbance Units] | Absorbance Units at 307 nm (soybean peroxidase [2]; time of reaction 2 min) [Absorbance Units] | Absorbance Units at 307 nm (soybean peroxidase [2]; time of reaction 3 min) [Absorbance Units] | Absorbance Units at 307 nm (soybean peroxidase [2]; time of reaction 7 min) [Absorbance Units]
1 | COC(=O)c1ccccc1N(C)C [DMA, N,N-Dimethylanthranilic acid methyl ester] | 0.727 | 0.005 | 0.2603 | 0.099 | 0.181 | 0.2401 | 0.1095 | 0.0065 | – | – | – | – | – | – | – | – | – | – | – | –
2 | CC1(C)CC(=O)CC(=O)C1 [dimedone, 5,5-dimethyl-1,3-cyclohexane dione] | – | – | – | – | – | – | – | – | 0.1066 | 0.1204 | 0.1962 | 0.1792 | 0.0155 | 0.0181 | about 45 °C | 0.175 | 0.275 | 0.510 | 0.800 | 0.868
